# According to ChEMBL document CHEMBL4387741, “Optimization of novel reversible Bruton's tyrosine kinase inhibitors identified using Tethering-fragment-based screens” (Bioorg Med Chem, 2019):
# Tests used:
# [1] = test system: Tyrosine-protein kinase ABL1 (Homo sapiens), P00519 [M351T]; experiment: Inhibition of human phosphorylated ABL1 M351T mutant (S229 to K512 residues) expressed in mammalian expression system at 1 uM by Kinomescan method relative to control
# [2] = biological target: Casein kinase I isoform gamma-2 (Homo sapiens) (UniProt P78368); experiment: Inhibition of wild-type human full length CSNK1G2 (M1 to K415 residues) expressed in bacterial expression system at 1 uM by Kinomescan method relative to control
# Sequence of Casein kinase I isoform gamma-2 (Homo sapiens) (P78368 whole entry, looked up, the tested form may be a part, canonical isoform): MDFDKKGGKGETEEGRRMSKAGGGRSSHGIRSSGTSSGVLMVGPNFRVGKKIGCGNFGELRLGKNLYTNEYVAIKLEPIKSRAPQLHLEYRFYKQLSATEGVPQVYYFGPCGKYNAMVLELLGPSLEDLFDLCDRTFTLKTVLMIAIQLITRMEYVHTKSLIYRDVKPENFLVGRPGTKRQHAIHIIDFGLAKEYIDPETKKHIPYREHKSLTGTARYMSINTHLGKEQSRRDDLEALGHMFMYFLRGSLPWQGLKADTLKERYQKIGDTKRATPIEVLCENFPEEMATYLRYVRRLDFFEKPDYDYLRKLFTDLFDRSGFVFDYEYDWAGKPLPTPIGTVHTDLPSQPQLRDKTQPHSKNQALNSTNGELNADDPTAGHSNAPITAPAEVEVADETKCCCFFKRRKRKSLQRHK
# [3] = biological target: Interleukin-1 receptor-associated kinase 3 (Homo sapiens) (UniProt Q9Y616); experiment: Inhibition of wild-type human partial length IRAK3 (V147 to E596 residues) expressed in bacterial expression system at 1 uM by Kinomescan method relative to control
# [4] = biological target: Receptor-interacting serine/threonine-protein kinase 1 (Homo sapiens) (UniProt Q13546); experiment: Inhibition of wild-type human partial length RIPK1 (M1 to K305 residues) expressed in bacterial expression system at 1 uM by Kinomescan method relative to control
# [5] = biological target: Serine/threonine-protein kinase PAK 2 (Homo sapiens) (UniProt Q13177); experiment: Inhibition of wild-type human partial length PAK2 (P151 to R525 residues) expressed in bacterial expression system at 1 uM by Kinomescan method relative to control
# Sequence of Serine/threonine-protein kinase PAK 2 (Homo sapiens) (Q13177 whole entry, the tested form may be a part): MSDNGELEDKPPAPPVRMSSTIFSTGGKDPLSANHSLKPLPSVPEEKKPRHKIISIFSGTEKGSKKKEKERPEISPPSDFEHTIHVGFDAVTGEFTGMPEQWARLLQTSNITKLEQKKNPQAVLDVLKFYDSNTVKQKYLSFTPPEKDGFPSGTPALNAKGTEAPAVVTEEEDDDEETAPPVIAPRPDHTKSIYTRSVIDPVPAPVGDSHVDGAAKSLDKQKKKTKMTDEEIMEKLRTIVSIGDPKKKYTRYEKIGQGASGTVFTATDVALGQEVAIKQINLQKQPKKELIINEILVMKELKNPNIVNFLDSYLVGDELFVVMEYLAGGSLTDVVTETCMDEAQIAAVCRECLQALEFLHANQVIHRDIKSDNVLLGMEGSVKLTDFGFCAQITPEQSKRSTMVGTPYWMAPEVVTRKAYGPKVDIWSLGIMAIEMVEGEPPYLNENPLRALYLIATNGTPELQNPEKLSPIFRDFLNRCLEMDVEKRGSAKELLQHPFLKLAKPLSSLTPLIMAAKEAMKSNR
# [6] = test system: Tyrosine-protein kinase ABL1 (Homo sapiens), P00519 [H396P]; experiment: Inhibition of human non-phosphorylated ABL1 H396P mutant (S229 to K512 residues) expressed in mammalian expression system at 1 uM by Kinomescan method relative to control
# [7] = biological target: Ribosomal protein S6 kinase beta-1 (Homo sapiens) (UniProt P23443); experiment: Inhibition of wild-type human partial length S6K1 (M1 to S421 residues) expressed in mammalian expression system at 1 uM by Kinomescan method relative to control
# [8] = biological target: Tyrosine-protein kinase Yes (Homo sapiens) (UniProt P07947); experiment: Inhibition of wild-type human partial length YES (T257 to L543 residues) expressed in bacterial expression system at 1 uM by Kinomescan method relative to control
# [9] = biological target: Serine/threonine-protein kinase Nek4 (Homo sapiens) (UniProt P51957); experiment: Inhibition of wild-type human full length NEK4 (M1 to F841 residues) expressed in mammalian expression system at 1 uM by Kinomescan method relative to control
# [10] = biological target: Beta-adrenergic receptor kinase 1 (Homo sapiens) (UniProt P25098); experiment: Inhibition of wild-type human full length GRK2 (M1 to L689 residues) expressed in mammalian expression system at 1 uM by Kinomescan method relative to control
# [11] = biological target: Tyrosine-protein kinase Lyn (Homo sapiens) (UniProt P07948); experiment: Inhibition of wild-type human partial length LYN (C219 to Q511 residues) expressed in bacterial expression system at 1 uM by Kinomescan method relative to control
# Sequence of Tyrosine-protein kinase Lyn (Homo sapiens) (P07948 2-512 limits assumed): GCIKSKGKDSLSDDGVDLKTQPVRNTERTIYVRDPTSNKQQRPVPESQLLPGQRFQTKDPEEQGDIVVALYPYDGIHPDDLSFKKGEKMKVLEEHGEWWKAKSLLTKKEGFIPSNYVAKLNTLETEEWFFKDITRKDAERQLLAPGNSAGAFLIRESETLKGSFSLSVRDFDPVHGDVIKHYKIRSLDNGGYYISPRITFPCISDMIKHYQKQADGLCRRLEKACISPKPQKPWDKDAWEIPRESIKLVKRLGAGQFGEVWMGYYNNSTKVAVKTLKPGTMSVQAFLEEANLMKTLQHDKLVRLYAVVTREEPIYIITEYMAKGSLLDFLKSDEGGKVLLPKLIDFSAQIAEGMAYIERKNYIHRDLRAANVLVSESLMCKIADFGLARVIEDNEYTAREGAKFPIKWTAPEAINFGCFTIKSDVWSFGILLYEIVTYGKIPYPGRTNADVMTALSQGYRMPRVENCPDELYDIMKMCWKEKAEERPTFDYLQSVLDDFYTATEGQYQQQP
# [12] = biological target: Tyrosine-protein kinase ABL1 (Homo sapiens) (UniProt P00519); experiment: Inhibition of wild-type human non-phosphorylated ABL1 (S229 to K512 residues) expressed in mammalian expression system at 1 uM by Kinomescan method relative to control
# [13] = biological target: Serine/threonine-protein kinase NIM1 (Homo sapiens) (UniProt Q8IY84); experiment: Inhibition of wild-type human partial length NIM1 (Q44 to N355 residues) expressed in mammalian expression system at 1 uM by Kinomescan method relative to control
# [14] = biological target: Serine/threonine-protein kinase PknB (Mycobacterium tuberculosis) (UniProt P9WI81); experiment: Inhibition of wild-type Mycobacterium tuberculosis partial length PKNB (M1 to G279 residues) expressed in mammalian expression system at 1 uM by Kinomescan method relative to control
# [15] = biological target: Ephrin type-A receptor 6 (Homo sapiens) (UniProt Q9UF33); experiment: Inhibition of wild-type human partial length EPHA6 (Y700 to E1046 residues) expressed in bacterial expression system at 1 uM by Kinomescan method relative to control
# [16] = biological target: Serine/threonine-protein kinase PLK2 (Homo sapiens) (UniProt Q9NYY3); experiment: Inhibition of wild-type human partial length PLK2 (H58 to F354 residues) expressed in mammalian expression system at 1 uM by Kinomescan method relative to control
# Sequence of Serine/threonine-protein kinase PLK2 (Homo sapiens) (Q9NYY3 whole entry, looked up, the tested form may be a part): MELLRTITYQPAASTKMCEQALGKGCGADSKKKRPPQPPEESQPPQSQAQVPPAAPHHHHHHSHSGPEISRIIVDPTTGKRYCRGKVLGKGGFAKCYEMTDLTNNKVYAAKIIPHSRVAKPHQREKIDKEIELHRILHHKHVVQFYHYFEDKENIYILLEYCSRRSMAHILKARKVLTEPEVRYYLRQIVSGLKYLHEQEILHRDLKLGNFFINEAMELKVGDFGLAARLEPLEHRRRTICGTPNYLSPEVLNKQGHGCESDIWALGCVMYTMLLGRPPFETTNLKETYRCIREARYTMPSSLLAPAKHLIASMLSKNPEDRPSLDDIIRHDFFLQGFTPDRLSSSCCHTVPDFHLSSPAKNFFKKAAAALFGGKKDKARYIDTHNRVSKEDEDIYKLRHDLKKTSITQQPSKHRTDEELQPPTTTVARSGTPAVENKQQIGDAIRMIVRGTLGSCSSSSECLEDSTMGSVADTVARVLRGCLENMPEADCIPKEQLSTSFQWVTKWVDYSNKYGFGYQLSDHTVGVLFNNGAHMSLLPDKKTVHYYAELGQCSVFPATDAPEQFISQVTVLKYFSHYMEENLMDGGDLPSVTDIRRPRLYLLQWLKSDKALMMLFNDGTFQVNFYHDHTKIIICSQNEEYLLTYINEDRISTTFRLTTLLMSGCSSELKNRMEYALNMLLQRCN
# [17] = biological target: Cyclin-dependent kinase 7 (Homo sapiens) (UniProt P50613); experiment: Inhibition of wild-type human full length CDK7 (M1 to L344 residues) expressed in mammalian expression system at 1 uM by Kinomescan method relative to control
# [18] = biological target: Serine/threonine-protein kinase 4 (Homo sapiens) (UniProt Q13043); experiment: Inhibition of wild-type human full length MST1 (M1 to F487 residues) expressed in bacterial expression system at 1 uM by Kinomescan method relative to control
# Sequence of Serine/threonine-protein kinase 4 (Homo sapiens) (Q13043 whole entry, the tested form may be a part): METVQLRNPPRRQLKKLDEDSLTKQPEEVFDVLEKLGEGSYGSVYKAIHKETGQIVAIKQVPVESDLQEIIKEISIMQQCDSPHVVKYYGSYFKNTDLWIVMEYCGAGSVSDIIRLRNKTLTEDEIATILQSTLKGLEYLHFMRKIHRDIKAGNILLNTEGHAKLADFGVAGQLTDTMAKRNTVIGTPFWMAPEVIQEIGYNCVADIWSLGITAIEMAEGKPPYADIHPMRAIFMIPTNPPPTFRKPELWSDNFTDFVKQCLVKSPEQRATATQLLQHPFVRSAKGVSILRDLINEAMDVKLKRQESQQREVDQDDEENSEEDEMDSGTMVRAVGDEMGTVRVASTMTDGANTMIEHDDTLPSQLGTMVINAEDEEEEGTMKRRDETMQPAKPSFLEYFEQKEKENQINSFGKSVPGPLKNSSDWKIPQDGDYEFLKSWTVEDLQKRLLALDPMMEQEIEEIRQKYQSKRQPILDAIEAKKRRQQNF
# [19] = biological target: Serine/threonine-protein kinase PLK3 (Homo sapiens) (UniProt Q9H4B4); experiment: Inhibition of wild-type human partial length PLK3 (A42 to L334 residues) expressed in mammalian expression system at 10 uM by Kinomescan method relative to control
# Sequence of Serine/threonine-protein kinase PLK3 (Homo sapiens) (Q9H4B4 whole entry, looked up, the tested form may be a part): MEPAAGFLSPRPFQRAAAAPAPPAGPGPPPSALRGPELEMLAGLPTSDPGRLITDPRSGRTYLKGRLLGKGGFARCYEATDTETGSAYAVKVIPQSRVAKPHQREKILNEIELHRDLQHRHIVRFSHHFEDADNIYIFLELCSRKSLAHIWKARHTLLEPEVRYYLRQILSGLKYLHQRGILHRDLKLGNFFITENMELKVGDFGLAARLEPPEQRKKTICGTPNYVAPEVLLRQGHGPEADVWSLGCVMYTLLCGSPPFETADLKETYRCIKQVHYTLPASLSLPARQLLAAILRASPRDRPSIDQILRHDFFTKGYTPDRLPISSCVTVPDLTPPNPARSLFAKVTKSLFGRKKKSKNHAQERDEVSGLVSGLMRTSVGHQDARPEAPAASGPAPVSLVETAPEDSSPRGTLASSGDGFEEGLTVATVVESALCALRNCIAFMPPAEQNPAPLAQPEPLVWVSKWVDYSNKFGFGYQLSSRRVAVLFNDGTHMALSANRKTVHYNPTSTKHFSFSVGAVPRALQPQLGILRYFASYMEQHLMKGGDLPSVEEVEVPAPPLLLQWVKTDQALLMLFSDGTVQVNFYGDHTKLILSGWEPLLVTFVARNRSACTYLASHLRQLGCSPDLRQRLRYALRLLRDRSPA
# [20] = biological target: RAC-alpha serine/threonine-protein kinase (Homo sapiens) (UniProt P31749); experiment: Inhibition of wild-type human partial length AKT1 expressed in bacterial expression system at 10 uM by Kinomescan method relative to control
# Sequence of RAC-alpha serine/threonine-protein kinase (Homo sapiens) (P31749 whole entry, the tested form may be a part): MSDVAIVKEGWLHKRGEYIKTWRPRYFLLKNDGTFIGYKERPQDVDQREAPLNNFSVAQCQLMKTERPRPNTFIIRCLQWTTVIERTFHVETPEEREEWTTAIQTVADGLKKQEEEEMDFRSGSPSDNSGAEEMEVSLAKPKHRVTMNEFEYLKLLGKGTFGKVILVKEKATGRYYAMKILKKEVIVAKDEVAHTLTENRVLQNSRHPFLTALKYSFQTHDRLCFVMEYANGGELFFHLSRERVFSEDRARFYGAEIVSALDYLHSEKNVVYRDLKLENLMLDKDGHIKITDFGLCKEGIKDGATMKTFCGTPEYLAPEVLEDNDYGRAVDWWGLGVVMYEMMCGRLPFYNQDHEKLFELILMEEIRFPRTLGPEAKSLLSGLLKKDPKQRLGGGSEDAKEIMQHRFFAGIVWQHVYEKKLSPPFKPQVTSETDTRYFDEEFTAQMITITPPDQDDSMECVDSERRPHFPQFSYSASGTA
# [21] = biological target: Serine/threonine-protein kinase PAK 2 (Homo sapiens) (UniProt Q13177); experiment: Inhibition of wild-type human partial length PAK2 (P151 to R525 residues) expressed in bacterial expression system at 10 uM by Kinomescan method relative to control
# [22] = biological target: Serine/threonine-protein kinase Sgk3 (Homo sapiens) (UniProt Q96BR1); experiment: Inhibition of wild-type human partial length SGK3 (M119 to L496 residues) expressed in mammalian expression system at 10 uM by Kinomescan method relative to control
# [23] = biological target: Dual specificity protein kinase CLK2 (Homo sapiens) (UniProt P49760); experiment: Inhibition of wild-type human partial length CLK2 (D144 to R498 residues) expressed in bacterial expression system at 10 uM by Kinomescan method relative to control
# [24] = biological target: Cytoplasmic tyrosine-protein kinase BMX (Homo sapiens) (UniProt P51813); experiment: Inhibition of wild-type human full length BMX (M1 to H675 residues) expressed in bacterial expression system at 10 uM by Kinomescan method relative to control
# [25] = biological target: Serine/threonine-protein kinase Nek9 (Homo sapiens) (UniProt Q8TD19); experiment: Inhibition of wild-type human partial length NEK9 (P32 to R328 residues) expressed in bacterial expression system at 10 uM by Kinomescan method relative to control
# Sequence of Serine/threonine-protein kinase Nek9 (Homo sapiens) (Q8TD19 whole entry, the tested form may be a part): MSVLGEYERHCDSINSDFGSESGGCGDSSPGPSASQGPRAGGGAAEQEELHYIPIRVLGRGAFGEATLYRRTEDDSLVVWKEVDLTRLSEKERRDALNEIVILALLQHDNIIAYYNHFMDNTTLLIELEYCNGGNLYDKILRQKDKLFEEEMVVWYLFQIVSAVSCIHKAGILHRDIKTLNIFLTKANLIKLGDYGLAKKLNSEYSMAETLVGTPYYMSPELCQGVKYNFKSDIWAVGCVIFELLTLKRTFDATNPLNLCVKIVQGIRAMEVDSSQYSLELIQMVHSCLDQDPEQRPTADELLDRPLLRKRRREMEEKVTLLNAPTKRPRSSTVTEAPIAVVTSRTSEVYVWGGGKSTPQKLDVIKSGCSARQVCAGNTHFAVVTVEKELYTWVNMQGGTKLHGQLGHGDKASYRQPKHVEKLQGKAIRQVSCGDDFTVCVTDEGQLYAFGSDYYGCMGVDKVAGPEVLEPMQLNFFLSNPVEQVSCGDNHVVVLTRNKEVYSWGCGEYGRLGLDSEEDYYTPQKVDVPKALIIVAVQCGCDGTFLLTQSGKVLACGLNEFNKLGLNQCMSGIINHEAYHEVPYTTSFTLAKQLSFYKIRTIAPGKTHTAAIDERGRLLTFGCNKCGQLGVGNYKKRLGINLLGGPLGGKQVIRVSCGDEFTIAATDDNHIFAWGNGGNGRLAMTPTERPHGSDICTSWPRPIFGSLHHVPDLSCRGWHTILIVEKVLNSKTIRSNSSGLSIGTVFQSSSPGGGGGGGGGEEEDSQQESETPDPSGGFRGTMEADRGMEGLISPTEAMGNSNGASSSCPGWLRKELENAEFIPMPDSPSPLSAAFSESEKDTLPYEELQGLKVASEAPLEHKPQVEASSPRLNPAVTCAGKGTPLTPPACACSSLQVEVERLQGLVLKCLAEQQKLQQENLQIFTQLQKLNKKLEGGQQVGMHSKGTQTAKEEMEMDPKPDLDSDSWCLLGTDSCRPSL
# [26] = biological target: Cyclin-dependent kinase 5 (Homo sapiens) (UniProt Q00535); experiment: Inhibition of wild-type human full length CDK5 (M1 to P292 residues) expressed in bacterial expression system at 10 uM by Kinomescan method relative to control
# Sequence of Cyclin-dependent kinase 5 (Homo sapiens) (Q00535 whole entry, looked up, the tested form may be a part): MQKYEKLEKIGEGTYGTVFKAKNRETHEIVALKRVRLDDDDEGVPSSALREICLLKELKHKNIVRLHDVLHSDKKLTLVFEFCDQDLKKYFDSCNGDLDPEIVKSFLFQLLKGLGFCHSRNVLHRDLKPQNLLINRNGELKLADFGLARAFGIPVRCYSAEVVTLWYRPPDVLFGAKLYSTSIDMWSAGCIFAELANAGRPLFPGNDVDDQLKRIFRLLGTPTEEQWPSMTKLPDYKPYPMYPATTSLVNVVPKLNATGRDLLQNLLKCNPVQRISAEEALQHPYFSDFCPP
# [27] = biological target: Mitogen-activated protein kinase 13 (Homo sapiens) (UniProt O15264); experiment: Inhibition of wild-type human full length p38-delta (M1 to L365 residues) expressed in bacterial expression system at 10 uM by Kinomescan method relative to control
compound,measurement,setting,value
O=C(Nc1cccc([C@@H]2CN(c3ncnc4[nH]ccc34)CCN2CCO)c1)Nc1c(F)cccc1N1CCCC1,inhibition,[1],90%
same,inhibition,[2],100%
same,inhibition,[3],100%
same,inhibition,[4],100%
same,inhibition,[5],87%
same,inhibition,[6],96%
same,inhibition,[7],48%
same,inhibition,[8],67%
same,inhibition,[9],86%
same,inhibition,[10],96%
same,inhibition,[11],72%
same,inhibition,[12],61%
same,inhibition,[13],93%
same,inhibition,[14],80%
same,inhibition,[15],99%
same,inhibition,[16],87%
same,inhibition,[17],100%
same,inhibition,[18],78%
O=C(Nc1cccc([C@H]2CCCN(c3ncnc4[nH]ccc34)C2)c1)Nc1ccccc1N1CCCC1,inhibition,[19],65%
same,inhibition,[20],100%
same,inhibition,[21],88%
same,inhibition,[22],40%
same,inhibition,[23],53%
same,inhibition,[24],43%
same,inhibition,[25],95%
same,inhibition,[26],92%
same,inhibition,[27],100%
